Laboratory results as given in patent US20180042930A1, “METHODS OF TREATMENT OF MALIGNANCIES” (Celgene Corporation, priority 2016, published 2018).

Experiments:
Assay type in all cases: in vivo, human
[1] = tested on: MDS and mIDH2; experiment: Example 2: clinical response to COMPOUND A monotherapy (IWG 2006 MDS criteria), survival
Excerpt: (§1) Cheson et al., Blood. 108:419-425 (2006). […] Overall survival (OS) was estimated using Kaplan-Meier methods.

[2] = tested on: patients with MDS and mIDH2; experiment: Example 2: safety, treatment-emergent adverse events
Excerpt: (§2) A DLT was defined as outlined below.
as §1

[3] = tested on: MDS and mIDH2; experiment: Example 3: clinical response to COMPOUND A monotherapy (IWG 2006 MDS criteria), survival
Excerpt: as §1

[4] = tested on: 2-HG plasma levels; experiment: Phase 1/2 study: pharmacodynamic response, 2-HG plasma levels
Experimental: Dose Escalation Phase: The dose escalation phase utilized a standard “3+3” design. During the dose escalation phase, consented eligible subjects with relapsed or refractory acute myelogenous leukemia (AML), untreated AML≧60 years of age who were not candidates for standard therapy, or myelodysplastic syndrome with refractory anemia with excess blasts were enrolled into sequential cohorts of increasing doses of COMPOUND A not to exceed 650 mg QD dose. Each dose cohort enrolled a minimum of 3 subjects. The first 3 subjects enrolled in each dosing cohort during the dose escalation portion of the study received a single dose of study drug on Day −3 (i.e., 3 days prior to the start of daily dosing) and underwent safety and PK/PD assessments over 72 hours to evaluate drug concentrations and 2-HG and α-KG levels. The next dose of study drug was on Cycle 1 Day 1 (C1D1) at which time daily dosing began. The initial dosing schedule was twice daily (approximately every 12 hours). Based on the emerging data, a once daily dosing schedule also has been implemented. […]
Subjects in the dose escalation phase and Part 1 Expansion also underwent PK/PD assessments over a 10-hour period on C1D15, C2D1, and C4D1. […] Available bone marrow biopsy samples also were assessed for 2-HG and α-KG levels. […]

[5] = tested on: subjects with advanced hematologic malignancies with an IDH2 mutation; experiment: Phase 1/2 study: safety profile (AEs, NCI CTCAE); conditions: 100 mg
Excerpt: as §2
Monitoring of AEs, including determination of DLTs, serious adverse events (SAEs), and AEs leading to discontinuation; safety laboratory parameters; physical examination findings; vital signs; 12-lead ECGs; LVEF; and ECOG PS.

[6] = tested on: MDS and mIDH2 with co-occurring gene mutations; experiment: Example 3: association of co-occurring somatic mutations (FoundationOne Heme panel) with response to COMPOUND A
Experimental: as §1
Analysis of MDS patients for association of gene mutations found with overall response rate (ORR) was performed on patients who received COMPOUND A and where a clinical response was captured for at least one time point during treatment (Table 12). An average of 2.6 genes were mutated in each patient beyond IDH2.

[7] = 10 evaluable pts with prior HMA Tx
[8] = evaluable pts had ≧5% BM blasts at baseline
[9] = sustained ≧4 weeks, from beginning COMPOUND A Tx
[10] = 13 patients with prior HMA therapy
[11] = IWG 2006, denominators reflect eligibility
[12] = investigator-assessed, evaluable patients had ≧5% bone marrow blasts at baseline
[13] = programmatically adjudicated per IWG 2006 criteria, denominators reflect eligibility

CC(C)(O)CNc1nc(Nc2ccnc(C(F)(F)F)c2)nc(-c2cccc(C(F)(F)F)n2)n1.CS(=O)(=O)O [COMPOUND A, mesylate salt of 2-methyl-1-[(4-[6-(trifluoromethyl)pyridin-2-yl]-6-{[2-(trifluoromethyl)pyridin-4-yl]amino}-1,3,5-triazin-2-yl)amino]propan-2-ol]
responses in pts with no prior MDS Tx ([1]; 4 pts with no prior MDS Tx): a PR and mCR (1 each) | pts with a response among pts who had received prior HMA Tx [1, 7]: 5 pts | response rate among pts who had received prior HMA Tx [1, 7]: 50% | Best response Hematologic Improvement ([1]; MDS pts N=16): (27) % | Best response Hematologic Improvement, pts/evaluable ([1]; MDS pts N=16): 4/15 | Overall response rate (CR + PR + mCR + HI), responders/evaluable ([1]; MDS pts N=16, oral 60-300 mg daily, 28-day cycles): 8/15 | Best response Complete Remission [1, 8]: (11) % | Best response Marrow CR [1, 8]: (22) % | Best response Marrow CR, pts/evaluable [1, 8]: 2/9 | Best response Partial Remission [1, 8]: (11) % | Best response Partial Remission, pts/evaluable [1, 8]: 1/9 | Median OS ([1]; median follow-up of 4.7 months, Kaplan-Meier): not reached | Median time to CR, PR, or mCR [1, 9]: 24 days | time to CR, PR, or mCR, range [1, 9]: 17 to 87 days | Median time to HI ([1]; sustained ≧8 weeks): 11 days | time to HI, range ([1]; sustained ≧8 weeks): 11 to 60 days | Grade 3-4 TEAE hyperbilirubinemia (unconjugated) ([2]; MDS pts N=16): 5 n | Grade 3-4 TEAE hypokalemia ([2]; MDS pts N=16): 3 n | Grade 3-4 TEAE pneumonia ([2]; MDS pts N=16): 4 n | Grade 3-4 TEAE thrombocytopenia ([2]; MDS pts N=16): 3 n | Grade 3-4 treatment-emergent AEs (TEAEs) ([2]; MDS pts N=16): 81% | Grade 3-4 treatment-emergent AEs (TEAEs), pts ([2]; MDS pts N=16): 13 pts | grade 3-4 drug-related TEAE ([2]; MDS pts N=16): 44% | grade 3-4 drug-related TEAE, pts ([2]; MDS pts N=16): Seven | tolerability of daily oral monotherapy ([2]; MDS pts with mIDH2): well tolerated | patients with a response among patients who had received prior HMA therapy [3, 10]: 7 patients | response rate among patients who had received prior HMA therapy [3, 10]: 54% | HI-E [3, 11]: 20% | HI-E, patients/eligible [3, 11]: 3/15 | HI-N [3, 11]: 40% | HI-N, patients/eligible [3, 11]: 4/10 | HI-P [3, 11]: 33% | HI-P, patients/eligible [3, 11]: 4/12 | Overall response rate (CR + PR + mCR + HI) ([3]; MDS patients N=17): 59% | Overall response rate (CR + PR + mCR + HI), responders/evaluable ([3]; MDS patients N=17): 10/17 | Best response Complete Remission [3, 12]: 9% | Best response Complete Remission, patients/evaluable [3, 12]: 1/11 | Best response Marrow CR [3, 12]: 27% | Best response Marrow CR, patients/evaluable [3, 12]: 3/11 | Best response Partial Remission [3, 12]: 9% | Best response Partial Remission, patients/evaluable [3, 12]: 1/11 | median overall survival ([3]; median follow-up of 7.5 months): not reached | patients with bilineage improvement ([3]; of patients who attained HI): 2 patients | patients with trilineage improvement ([3]; of patients who attained HI): 2 patients | Any Hematologic Improvement (HI) [3, 13]: 29% | Any Hematologic Improvement (HI), patients/eligible [3, 13]: 5/17 | median time to response ([3]; treated MDS patients): 21 days | time to response, range ([3]; treated MDS patients): 10 to 87 days | inhibition of 2-HG plasma levels ([4]; most subjects with R140Q mutation, all doses, sustained reduction by Day 1 of Cycle 2): up to 98% | exposure and inhibition of 2-HG versus dose ([4]; subjects with R172K mutation): Increasing dose was associated with higher exposure and inhibition of 2-HG | safety profile, including ≧Grade 3 [5]: consistent with that of lower doses | ORR OR ([6]; ASXL1 mutation): 2.500 | ORR OR ([6]; KRAS mutation): 0.214 | clinical responses (≧HI) by co-occurring mutation ([6]; MDS patients with mIDH2): observed in the presence of all mutations except TP53, U2AF1, SETBP1, TCF3, STAG2, NRAS, JAK2 and BRAF | mutations enriched in MDS patients with clinical response (≧HI) ([6]; MDS patients with mIDH2): patients with mutations in SRSF2, MPL and ASXL1 are enriched | ORR OR ([6]; MPL mutation): 4.231 | ORR OR ([6]; SETBP1 mutation): 0.082 | ORR OR ([6]; SRSF2 mutation): 12.000 | ORR OR ([6]; TP53 mutation): 0.082 | ORR OR ([6]; U2AF1 mutation): 0.082 | ORR ([6]; patients with ASXL1 mutation): 0.714 | ORR ([6]; patients with KRAS mutation): 0.333 | ORR ([6]; patients with MPL mutation): 1.000 | ORR ([6]; patients with SETBP1 mutation): 0.000 | ORR ([6]; patients with SRSF2 mutation): 0.857 | ORR ([6]; patients with TP53 mutation): 0.000 | ORR ([6]; patients with U2AF1 mutation): 0.000
